Results: ChEMBL document CHEMBL3611997, “4-Fluoro-3',4',5'-trimethoxychalcone as a new anti-invasive agent. From discovery to initial validation in an in vivo metastasis model” (Eur J Med Chem, 2015)
Values after ≈ are worked out from the molar mass of the structure shown. Active and inactive are the calls of the source. The rule behind the calls is not given here.

What was measured:
[1] = test system: MCF7/6; test: Antiinvasive activity in human MCF7/6 cells assessed as Cmin for progressive occupation of chicken precultured heart tissue fragments at 0.01 to 10 umol/L after 8 days by chick heart invasion assay; type: functional, cell-based
[2] = test system: SK-OV-3; test: Antiinvasive activity in human in SKOV3 cells assessed as reduction of amount of cells present on filter at 0.1 umol/L after 24 hrs by matrigel invasion assay (reference value: 100%); type: functional; parameters: scale not given: the % may be the effect or the level left
[3] = test system: SK-OV-3; test: Antiinvasive activity in human in SKOV3 cells assessed as reduction of amount of cells present on filter at 1 umol/L after 24 hrs by matrigel invasion assay (reference value: 100%); type: functional; parameters: scale not given: the % may be the effect or the level left
[4] = test system: SK-OV-3; test: Antiinvasive activity in human in SKOV3 cells assessed as reduction of amount of cells present on filter at 10 umol/L after 24 hrs by matrigel invasion assay (reference value: 100%); type: functional; parameters: scale not given: the % may be the effect or the level left
[5] = Antiinvasive activity in human in BLM cells assessed as reduction of amount of cells present on filter at 0.1 umol/L after 24 hrs by matrigel invasion assay (reference value: 100%); type: functional; parameters: scale not given: the % may be the effect or the level left
[6] = Antiinvasive activity in human in BLM cells assessed as reduction of amount of cells present on filter at 1 umol/L after 24 hrs by matrigel invasion assay (reference value: 100%); type: functional; parameters: scale not given: the % may be the effect or the level left
[7] = Aqueous solubility of the compound in PBS at pH 7.4 at 200 umol/L; type: physicochemical
[8] = Aqueous solubility of the compound in simulated intestinal fluid at 200 umol/L; type: physicochemical
[9] = Aqueous solubility of the compound in simulated gastric fluid at 200 umol/L; type: physicochemical
[10] = Half life of the compound in simulated intestinal fluid at 1 umol/L; type: ADME
[11] = Half life of the compound in simulated gastric fluid at 1 umol/L; type: ADME
[12] = Half life in human blood at 1 umol/L; type: ADME, tissue-based
[13] = Protein binding in human plasma assessed as recovery at 10 umol/L; type: ADME, cell-free; conditions: read-out: Drug recovery
[14] = biological target: CYP3A4 (Homo sapiens, UniProt P08684); test: Inhibition of CYP3A4 (unknown origin) at 10 umol/L; type: ADME
Sequence of CYP3A4 (P08684 whole entry): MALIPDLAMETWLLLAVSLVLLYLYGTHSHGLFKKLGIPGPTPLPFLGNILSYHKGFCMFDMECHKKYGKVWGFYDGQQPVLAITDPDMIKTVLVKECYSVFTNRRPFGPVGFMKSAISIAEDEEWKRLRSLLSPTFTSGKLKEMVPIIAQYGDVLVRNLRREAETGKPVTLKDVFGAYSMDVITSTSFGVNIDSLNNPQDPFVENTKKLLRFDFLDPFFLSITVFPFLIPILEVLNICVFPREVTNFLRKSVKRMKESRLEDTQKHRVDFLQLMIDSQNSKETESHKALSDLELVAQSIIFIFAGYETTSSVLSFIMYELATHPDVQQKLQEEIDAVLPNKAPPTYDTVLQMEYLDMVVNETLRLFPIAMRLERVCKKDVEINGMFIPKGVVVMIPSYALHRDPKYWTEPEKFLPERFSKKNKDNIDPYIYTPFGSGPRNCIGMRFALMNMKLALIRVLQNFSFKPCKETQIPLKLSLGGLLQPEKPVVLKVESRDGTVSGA

[15] = Intrinsic clearance in human liver S9 fraction at 0.1 umol/L; type: ADME, subcellular; conditions: read-out: CLH
[16] = Permeability across apical to basolateral side of human Caco2 cells at 10 umol/L at pH 7.4; type: ADME, cell-based; conditions: Caco-2, pH 7.4, read-out: permeability
[17] = Permeability across basolateral to apical side of human Caco2 cells assessed as compound recovery at 10 umol/L at pH 7.4; type: ADME, cell-based; conditions: Caco-2, pH 7.4, read-out: Drug recovery
[18] = biological target: T1, hERG (Homo sapiens, UniProt Q12809); test: Inhibition of human ERG assessed as reduction of tail current at 1 umol/L
T1 sequence (Q12809 whole entry): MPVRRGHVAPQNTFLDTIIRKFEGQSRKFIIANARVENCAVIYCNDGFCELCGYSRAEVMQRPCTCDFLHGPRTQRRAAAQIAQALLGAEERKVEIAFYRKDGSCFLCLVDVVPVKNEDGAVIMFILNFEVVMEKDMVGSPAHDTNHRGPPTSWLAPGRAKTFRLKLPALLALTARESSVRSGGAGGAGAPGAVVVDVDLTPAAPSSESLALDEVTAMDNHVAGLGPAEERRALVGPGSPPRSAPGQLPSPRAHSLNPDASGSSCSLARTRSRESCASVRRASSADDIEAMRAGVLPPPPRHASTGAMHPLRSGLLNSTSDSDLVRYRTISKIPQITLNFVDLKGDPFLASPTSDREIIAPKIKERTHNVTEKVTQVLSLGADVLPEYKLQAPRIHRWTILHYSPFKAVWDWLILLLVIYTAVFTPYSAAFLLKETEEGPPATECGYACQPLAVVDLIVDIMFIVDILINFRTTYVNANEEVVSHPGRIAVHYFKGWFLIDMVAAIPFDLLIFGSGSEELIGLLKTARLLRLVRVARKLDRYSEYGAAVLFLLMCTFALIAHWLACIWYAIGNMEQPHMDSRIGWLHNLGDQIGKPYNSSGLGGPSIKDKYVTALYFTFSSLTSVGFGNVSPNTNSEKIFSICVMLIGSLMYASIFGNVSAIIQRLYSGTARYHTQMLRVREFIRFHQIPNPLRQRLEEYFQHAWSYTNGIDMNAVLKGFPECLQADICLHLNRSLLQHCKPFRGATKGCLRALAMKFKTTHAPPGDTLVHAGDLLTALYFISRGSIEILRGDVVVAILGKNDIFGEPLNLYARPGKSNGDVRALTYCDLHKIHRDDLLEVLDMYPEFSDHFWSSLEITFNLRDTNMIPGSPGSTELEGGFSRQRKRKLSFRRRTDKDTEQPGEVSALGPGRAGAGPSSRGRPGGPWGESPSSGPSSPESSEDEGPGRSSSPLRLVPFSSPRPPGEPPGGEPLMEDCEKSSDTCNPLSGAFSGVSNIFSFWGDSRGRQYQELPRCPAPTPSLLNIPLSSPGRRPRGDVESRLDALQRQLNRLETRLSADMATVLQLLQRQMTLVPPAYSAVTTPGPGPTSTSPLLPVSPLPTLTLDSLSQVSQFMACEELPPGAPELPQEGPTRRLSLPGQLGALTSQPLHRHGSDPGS

[19] = biological target: T1, hERG; test: Inhibition of human ERG assessed as reduction of tail current at 10 umol/L
[20] = Toxicity in human HepG2 cells assessed as cell viability at 0.1 umol/L; type: cell-based; conditions: read-out: Activity
[21] = Toxicity in human HepG2 cells assessed as cell viability at 1 umol/L; type: cell-based; conditions: read-out: Activity
[22] = Toxicity in human HepG2 cells assessed as cell viability at 10 umol/L; type: cell-based; conditions: read-out: Activity
[23] = test system: Mus musculus; test: Toxicity in Swiss nu/nu mouse assessed as macroscopic anomalies at 1.6 to 160 mg/kg, ip administered three times a week for two-week period measured on day 15; type: organism-based; conditions: in vivo
[24] = test system: Mus musculus; test: Toxicity in Swiss nu/nu mouse assessed as histological anomalies in kidney at 1.6 to 160 mg/kg, ip administered three times a week for two-week period measured on day 15; type: organism-based; conditions: in vivo
[25] = test system: Mus musculus; test: Toxicity in Swiss nu/nu mouse assessed as histological anomalies in spleen at 1.6 to 160 mg/kg, ip administered three times a week for two-week period measured on day 15; type: organism-based; conditions: in vivo
[26] = test system: Mus musculus; test: Toxicity in Swiss nu/nu mouse assessed as hematological anomalies by measuring AST level at 1.6 mg/kg, ip administered three times a week for two-week period measured on day 15 (reference value: 254.2 +/- 144.6 IU/L); type: organism-based; conditions: in vivo
[27] = test system: Mus musculus; test: Toxicity in Swiss nu/nu mouse assessed as hematological anomalies by measuring AST level at 160 mg/kg, ip administered three times a week for two-week period measured on day 15 (reference value: 254.2 +/- 144.6 IU/L); type: organism-based; conditions: in vivo
[28] = test system: Mus musculus; test: Toxicity in Swiss nu/nu mouse assessed as hematological anomalies by measuring ALT level at 1.6 mg/kg, ip administered three times a week for two-week period measured on day 15 (reference value: 29.6 +/- 5.6 IU/L); type: organism-based; conditions: in vivo
[29] = test system: Mus musculus; test: Toxicity in Swiss nu/nu mouse assessed as hematological anomalies by measuring ALT level at 16 mg/kg, ip administered three times a week for two-week period measured on day 15 (reference value: 29.6 +/- 5.6 IU/L); type: organism-based; conditions: in vivo
[30] = test system: Mus musculus; test: Toxicity in Swiss nu/nu mouse assessed as hematological anomalies by measuring ALT level at 160 mg/kg, ip administered three times a week for two-week period measured on day 15 (reference value: 29.6 +/- 5.6 IU/L); type: organism-based; conditions: in vivo
[31] = test system: Mus musculus; test: Toxicity in Swiss nu/nu mouse assessed as hematological anomalies by measuring creatinine level at 160 mg/kg, ip administered three times a week for two-week period measured on day 15 (reference value: 0.29 +/- 0.02 mg/dL); type: organism-based; conditions: in vivo
[32] = Antimetastasis activity against human MCF7/6 cells xenografted in Swiss nu/nu mouse assessed as increase of survival time at 160 mg/kg, ip administered thrice a week relative to control; type: functional
[33] = test system: MCF7/6; test: Inhibition of cell migration in human MCF7/6 cells at 0.01 to 10 umol/L after 24 hrs by wound scratch assay; type: functional, cell-based
[34] = Cytotoxicity against human MCF7/6 cells assessed as reduction of mitochondrial activity at 0.01 to 100 umol/L after 6 days by MTT assay; type: cell-based; conditions: mcf7/6, 144 h
[35] = Cytotoxicity against human MCF7/6 cells assessed as reduction of cellular protein content at 0.01 to 100 umol/L after 6 days by SRB assay; type: cell-based; conditions: mcf7/6, 144 h
[36] = Cytotoxicity against human MCF7/6 cells assessed as reduction of mitochondrial activity at 10 to 100 umol/L after 8 days by MTT assay; type: cell-based; conditions: mcf7/6, 192 h
[37] = test system: MCF10; test: Cytotoxicity against human MCF10 cells assessed as reduction of mitochondrial activity at 0.01 to 100 umol/L after 6 days by MTT assay; type: cell-based; conditions: mcf10, 144 h
[38] = test system: MDA-MB-231; test: Cytotoxicity against human MDA-MB-231 cells expressing GFP assessed as reduction of cellular protein content at 0.01 to 100 umol/L after 6 days by SRB assay; type: cell-based; conditions: mda-mb-231, 144 h
[39] = test system: MDA-MB-231; test: Cytotoxicity against human MDA-MB-231 cells expressing GFP-Luc assessed as reduction of mitochondrial activity at 0.01 to 100 umol/L after 6 days by MTT assay; type: cell-based; conditions: mda-mb-231, 144 h
[40] = Cytotoxicity against human BLM cells assessed as reduction of mitochondrial activity at > 10 umol/L after 24 hrs by MTT assay; type: cell-based

COc1cc(C(=O)/C=C/c2ccc(F)cc2)cc(OC)c1OC
Activity [1]: Active | Activity [2]: 85% | Activity [3]: 18% | Activity [4]: 12% | Activity [5]: 20% | Activity [6]: 33% | solubility at 200 µM [7]: 2.4 µM (≈ 0.759 µg/mL) | solubility at 200 µM [8]: 7.9 µM (≈ 2.5 µg/mL) | solubility at 200 µM [9]: 9.1 µM (≈ 2.88 µg/mL) | half-life at 1 µM [10]: > 240 min | half-life at 1 µM [11]: > 60 min | half-life at 1 µM [12]: 10 min | recovery at 10 µM [13]: 90% | inhibition at 10 µM [14]: 27.2% | microsomal CLint at 0.1 µM [15]: 57.3 µL/min/mg | Papp A→B at 10 µM [16]: 10.4 ×10⁻⁶ cm/s | recovery at 10 µM [17]: 66% | inhibition at 1 µM [18]: 9.8% | inhibition at 10 µM [19]: 28.3% | viability at 0.1 µM [20]: 93.7% | viability at 1 µM [21]: 93.8% | viability at 10 µM [22]: 44.3% | Activity [23]: Non-toxic | Activity [24]: Non-toxic | Activity [25]: Non-toxic | Activity [26]: 135.5 IU/L | Activity [27]: 207.8 IU/L | Activity [28]: 30.5 IU/L | Activity [29]: 28.1 IU/L | Activity [30]: 33.2 IU/L | Activity [31]: 0.28 mg/dL | Survival [32]: 34 days | inhibition [33]: inactive | Activity [34]: Non-toxic | Activity [35]: Non-toxic | Activity [36]: Toxic | Activity [37]: Non-toxic | Activity [38]: Non-toxic | Activity [39]: Non-toxic | Activity [40]: Toxic
